Our source for the Emax and EC50 values is patent US20230265151A1, “GIP/GLP1 CO-AGONIST COMPOUNDS” (priority 2020, published 2023).

What all share (format): cell-based
One test concerns the target T1, hGIPR (Homo sapiens, UniProt P48546).
T1 construct: expressed in transfected cells
T1 sequence (P48546 22-466): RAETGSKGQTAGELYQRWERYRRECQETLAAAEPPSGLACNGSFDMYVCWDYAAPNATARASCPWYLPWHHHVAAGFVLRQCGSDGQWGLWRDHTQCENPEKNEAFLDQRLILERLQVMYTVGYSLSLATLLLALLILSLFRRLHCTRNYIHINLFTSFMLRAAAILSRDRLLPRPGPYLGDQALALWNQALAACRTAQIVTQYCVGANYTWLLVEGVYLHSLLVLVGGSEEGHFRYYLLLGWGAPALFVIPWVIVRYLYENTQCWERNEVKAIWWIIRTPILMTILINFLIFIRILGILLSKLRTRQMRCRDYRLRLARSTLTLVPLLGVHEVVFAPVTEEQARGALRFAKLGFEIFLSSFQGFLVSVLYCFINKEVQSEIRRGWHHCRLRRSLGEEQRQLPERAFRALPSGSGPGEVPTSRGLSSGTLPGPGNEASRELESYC
Kind of test: Functional cAMP formation (HTRF) in HEK-293 clonal cells expressing hGIPR, 0.1% bovine casein, without or with 1.0% human serum albumin. Particulars: for EC50: hGIPR EC50, nM (SEM, n), geometric mean. The method, boiled down: (§1)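 Cells were stimulated with peptide for 30 min at 37° C, then lysed in buffer carrying cAMP-d2 and anti-cAMP Eu3+-cryptate for a competitive HTRF read after at least 60 min at room temperature. The 665/620 nm ratio was converted to nM cAMP against a standard curve.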
Background: cAMP levels reflect the balance of adenylyl cyclase and phosphodiesterase activity.

For another test, the target named is T2, hGCGR (Homo sapiens, UniProt P47871).
T2 construct: expressed in transfected cells
T2 sequence (P47871 26-477): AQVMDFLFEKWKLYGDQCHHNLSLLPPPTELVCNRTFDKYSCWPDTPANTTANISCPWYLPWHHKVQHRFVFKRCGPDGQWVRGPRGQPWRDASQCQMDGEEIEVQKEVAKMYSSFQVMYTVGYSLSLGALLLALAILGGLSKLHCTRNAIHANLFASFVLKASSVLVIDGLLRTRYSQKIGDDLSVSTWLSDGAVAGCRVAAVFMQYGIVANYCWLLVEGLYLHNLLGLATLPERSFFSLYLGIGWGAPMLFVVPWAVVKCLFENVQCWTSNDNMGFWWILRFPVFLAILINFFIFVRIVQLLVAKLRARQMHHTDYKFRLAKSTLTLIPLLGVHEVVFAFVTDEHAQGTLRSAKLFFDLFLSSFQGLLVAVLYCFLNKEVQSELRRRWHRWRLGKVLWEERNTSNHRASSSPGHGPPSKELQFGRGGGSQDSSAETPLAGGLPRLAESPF
Kind of test: Functional cAMP formation (HTRF) in HEK-293 clonal cells expressing hGCGR, 0.1% bovine casein, without or with 1.0% human serum albumin. Particulars: hGCGR EC50, nM (SEM, n), geometric mean. The method, boiled down: as §1

Another test has as its target hGLP-1R (Homo sapiens, UniProt P43220). Description: Functional cAMP formation (HTRF) in HEK-293 clonal cells expressing hGLP-1R, 0.1% bovine casein, without or with 1.0% human serum albumin. The arrangement: expressed in transfected cells. Particulars: for Emax: arithmetic mean; for EC50: hGLP-1R EC50, nM (SEM, n), cAMP, 0.1% bovine casein (no human serum albumin), geometric mean. An outline of the steps: as §1

Setting [1] is: cAMP, incubated at 37° C., 0.1% bovine casein (no human serum albumin).
Where [2] appears, read: 0.1% bovine casein and 1.0% human serum albumin, 37° C.
The mark [3] stands for this setting: cAMP, 37° C., 0.1% bovine casein (no human serum albumin).

The term Emax denotes the size of the effect at its maximum, as opposed to the concentration needed. For orientation: EC50 means the concentration needed to bring the measured effect to its halfway point.

Like-named read-outs stand apart in the source and are kept apart here. *1 amine or outer side, *2 acyl side, *3 side chain or, on linkers, in order; H or OH if unused. Where a SMILES comes first, the peptide text is derived from it. Side-chain parts run from the residue outwards. [ ]: non-standard residue; d: D form. The star is where a group is joined. αMePhe(2-F) = C[C@](N)(Cc1ccccc1F)C(=O)O; γGlu = O=C(O)[C@H](CCC(=O)[*:2])N[*:1]; C14 diacid = O=C(O)CCCCCCCCCCCCC(=O)*; αMeY = C[C@](N)(Cc1ccc(O)cc1)C(=O)O; 4Pal = N[C@@H](Cc1ccncc1)C(=O)O; αMeL = CC(C)C[C@](C)(N)C(=O)O; αMeS = C[C@](N)(CO)C(=O)O; Orn = NCCC[C@H](N)C(=O)O; AEEA = NCCOCCOCC(=O)O; Aib = CC(C)(N)C(=O)O

Sequence of hGLP-1R (P43220 24-463): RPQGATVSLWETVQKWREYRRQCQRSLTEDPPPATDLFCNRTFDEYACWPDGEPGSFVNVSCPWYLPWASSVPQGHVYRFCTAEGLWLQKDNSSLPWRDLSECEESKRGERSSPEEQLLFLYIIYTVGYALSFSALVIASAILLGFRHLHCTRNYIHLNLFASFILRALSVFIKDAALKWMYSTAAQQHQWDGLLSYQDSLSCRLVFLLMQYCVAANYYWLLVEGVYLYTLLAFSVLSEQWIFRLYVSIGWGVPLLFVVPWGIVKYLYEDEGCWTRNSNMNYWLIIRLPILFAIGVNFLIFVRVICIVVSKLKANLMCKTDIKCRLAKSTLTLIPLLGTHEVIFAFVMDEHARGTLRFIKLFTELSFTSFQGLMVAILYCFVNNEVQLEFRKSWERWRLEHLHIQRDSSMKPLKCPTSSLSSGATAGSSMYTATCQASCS

In the case of `CC[C@H](C)[C@H](NC(=O)[C@H](CCCN)NC(=O)[C@H](CC(=O)O)NC(=O)[C@H](CC(C)C)NC(=O)[C@](C)(CC(C)C)NC(=O)[C@@H](NC(=O)[C@](C)(CO)NC(=O)[C@H](Cc1ccncc1)NC(=O)[C@H](CC(=O)O)NC(=O)[C@H](CO)NC(=O)[C@@H](NC(=O)[C@](C)(Cc1ccccc1F)NC(=O)[C@@H](NC(=O)CNC(=O)[C@H](CCC(=O)O)NC(=O)C(C)(C)NC(=O)[C@@H](N)Cc1ccc(O)cc1)[C@@H](C)O)[C@@H](C)O)[C@@H](C)CC)C(=O)N[C@@H](C)C(=O)N[C@@H](CCC(N)=O)C(=O)NC(C)(C)C(=O)N[C@@H](CCCCNC(=O)COCCOCCNC(=O)COCCOCCNC(=O)CC[C@H](NC(=O)CCCCCCCCCCCCC(=O)O)C(=O)O)C(=O)N[C@@H](Cc1ccccc1)C(=O)N[C@H](C(=O)N[C@@H](CCCCNC(=O)COCCOCCNC(=O)COCCOCCNC(=O)CC[C@H](NC(=O)CCCCCCCCCCCCC(=O)O)C(=O)O)C(=O)N[C@@](C)(Cc1ccc(O)cc1)C(=O)N[C@@H](CC(C)C)C(=O)N[C@H](C(=O)N[C@@H](CCC(=O)O)C(=O)NCC(=O)NCC(=O)N1CCC[C@H]1C(=O)N[C@@H](CO)C(=O)N[C@@H](CO)C(=O)NCC(=O)N[C@@H](C)C(=O)N1CCC[C@H]1C(=O)N1CCC[C@H]1C(=O)N1CCC[C@H]1C(=O)N[C@@H](CO)C(N)=O)[C@@H](C)CC)[C@@H](C)CC` [Example 215] (H-Y[Aib]EGT[αMePhe(2-F)]TSD[4Pal][αMeS]I[αMeL]LD[Orn]IAQ[Aib]K([AEEA-AEEA-γGlu-C14 diacid])FIK([AEEA-AEEA-γGlu-C14 diacid])[αMeY]LIEGGPSSGAPPPS-NH2), the maximal response (Emax) amounted to 91.3% on hGIPR (HEK293, read-out: hGIPR Emax, % ± SEM, 0.1% bovine casein and 1.0% human serum albumin, 37° C., percent of maximal response to GIP(1-42)NH2); 85% at hGIPR (HEK293, read-out: hGIPR Emax, % ± SEM, percent of maximal response to GIP(1-42)NH2, 37° C., 0.1% bovine casein, arithmetic mean); 89.8% on hGLP-1R (HEK293, read-out: hGLP-1R Emax, % ± SEM, percent of maximal response to GLP-1(7-36)NH2, 37° C., 0.1% bovine casein). Further, the EC50 is 0.0437 nM at hGIPR (setting [1]), > 9950 nM on hGCGR (setting [2]), > 9950 nM at hGCGR (setting [1]) and 0.44 nM at hGLP-1R (incubated at 37° C.).
Consider `CC[C@H](C)[C@H](NC(=O)[C@H](CCCN)NC(=O)[C@H](CC(=O)O)NC(=O)[C@H](CC(C)C)NC(=O)[C@](C)(CC(C)C)NC(=O)[C@@H](NC(=O)[C@](C)(CO)NC(=O)[C@H](Cc1ccncc1)NC(=O)[C@H](CC(=O)O)NC(=O)[C@H](CO)NC(=O)[C@@H](NC(=O)[C@](C)(Cc1ccccc1F)NC(=O)[C@@H](NC(=O)CNC(=O)[C@H](CCC(=O)O)NC(=O)C(C)(C)NC(=O)[C@@H](N)Cc1ccc(O)cc1)[C@@H](C)O)[C@@H](C)O)[C@@H](C)CC)C(=O)N[C@@H](C)C(=O)N[C@@H](CCC(N)=O)C(=O)NC(C)(C)C(=O)N[C@@H](CCC(=O)O)C(=O)N[C@@H](Cc1ccccc1)C(=O)N[C@H](C(=O)N[C@@H](CCCCNC(=O)COCCOCCNC(=O)COCCOCCNC(=O)CC[C@H](NC(=O)CCCCCCCCCOc1ccc(C(=O)O)cc1)C(=O)O)C(=O)N[C@@](C)(Cc1ccc(O)cc1)C(=O)N[C@@H](CC(C)C)C(=O)N[C@H](C(=O)N[C@@H](CCCCNC(=O)COCCOCCNC(=O)COCCOCCNC(=O)CC[C@H](NC(=O)CCCCCCCCCOc1ccc(C(=O)O)cc1)C(=O)O)C(=O)NCC(=O)NCC(=O)N1CCC[C@H]1C(=O)N[C@@H](CO)C(=O)N[C@@H](CO)C(=O)NCC(=O)N[C@@H](C)C(=O)N1CCC[C@H]1C(=O)N1CCC[C@H]1C(=O)N1CCC[C@H]1C(=O)N[C@@H](CO)C(N)=O)[C@@H](C)CC)[C@@H](C)CC` [Example 306], for which the EC50 was 1.12 nM at hGIPR (setting [2]); 0.0227 nM on hGIPR (setting [3]); > 9950 nM at hGCGR (setting [2]); > 9950 nM at hGCGR (setting [3]); 0.414 nM on hGLP-1R (37° C.). The maximal effect (Emax) at hGLP-1R (HEK293, read-out: hGLP-1R Emax, % ± SEM, cAMP, 37° C., 0.1% bovine casein, percent of maximal response to GLP-1(7-36)NH2) stood at 105%.
